Assay results: patent publication US20260234139A1, “PGDH INHIBITORS AND METHODS OF MAKING AND USING” (Epirium Bio Inc., priority 2023, published 2026)
pEC50, pIC50: −log10 of the molar value.

The molecules below were run against T1, 15-PGDH/HPGD (Homo sapiens, UniProt P15428) (assay: hPGDH inhibitor screening biochemical assay). Settings: 10 nM enzyme, 15 μM Prostaglandin E2, 0.25 mM NAD, fluorescence ex/em 340/485 nm.
T1 construct: purchased R&D System 5660-DH
T1 sequence (P15428 1-266): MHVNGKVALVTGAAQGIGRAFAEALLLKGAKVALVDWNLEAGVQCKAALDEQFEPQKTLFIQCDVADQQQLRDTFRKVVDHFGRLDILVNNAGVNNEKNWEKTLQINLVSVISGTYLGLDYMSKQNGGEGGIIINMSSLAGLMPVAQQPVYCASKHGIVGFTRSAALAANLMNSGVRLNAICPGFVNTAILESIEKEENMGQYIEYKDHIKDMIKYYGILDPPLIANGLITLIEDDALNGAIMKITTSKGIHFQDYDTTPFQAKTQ
Method: A hydroxyprostaglandin dehydrogenase inhibition screening biochemical assay can be performed to assess the synthesized inhibitors provided herein. Provided herein is an exemplary biochemical assay for hPGDH inhibitor screening.
The in vitro biochemical assay can be performed in white, 384 plates in total 20 μl reaction volume consisting of 10 nM of 15-PGDH/HPGD (R&D System #5660-DH), 15 μM Prostaglandin E2 (Sigma, Cat #P5640-10 MG) and 0.25 mM B-Nicotinamide adenine dinucleotide sodium salt (Sigma, Cat #N0632-5G) made in reaction buffer (50 mM Tris-HCl, pH 7.5, 0.01% Tween 20) at 10-point dose response curve for test/tool compounds. Briefly, 5 μl (4×) of compounds solution and 5 μl (final concentration, 10 nM) of enzyme solution is added to white 384 well plates and incubated for 10 mins at 37° C. 5 μl (4×) of Prostaglandin E2 and 5 μl (4×) of β-Nicotinamide adenine dinucleotide sodium salt is added to the wells and incubated for 10 mins at room temperature. Fluorescence is recorded at ex/em=340 nm/485 nm.

Row | Compound | pIC50
1 | CC(C)OCC(O)c1cnc2c(cnn2-c2cccc(-c3nnc[nH]3)c2)c1 (single isomer, unassigned) [Compound 18A] | > 7.00
2 | CCOC(C)(C)C(O)c1cnc2c(cnn2-c2cccc(-c3nnc[nH]3)c2)c1 (single isomer, unassigned) [Compound 34B] | 6.00 to 7.00
3 | CC(C)C[C@H](O)C(O)c1cnc2c(ccn2-c2cccc(-c3nnc[nH]3)c2)c1 (stereo in doubt) [Compound 3B, (1S,2S)-4-methyl-1-[1-[3-(4H-1,2,4-triazol-3-yl)phenyl]pyrrolo[2,3-b]pyridin-5-yl]pentane-1,2-diol] | > 7.00
4 | O=C(O)c1ccc(-n2ncc3cc(C(O)C4CC(F)(F)C4)cnc32)cc1 (stereo in doubt) [Compound 45B, (S)-4-(5-((3,3-difluorocyclobutyl)(hydroxy)methyl)-1H-pyrazolo[3,4-b]pyridin-1-yl)benzoic acid] | > 7.00
5 | CC(C)(O)c1cnc2c(ccn2-c2cc(Cl)cc(-c3nnc[nH]3)c2)c1 [Compound 14] | 6.00 to 7.00
6 | O[C@@H](COC1CCC1)c1cnc2c(cnn2-c2ccc(-c3nnn[nH]3)cc2)c1 [Compound 79B] | > 7.00

The next lines start with the values.

Row | pIC50 | Compound
7 | 6.00 to 7.00 | CC(O)(c1cnc2c(ccn2-c2cccc(-c3nnc[nH]3)c2)c1)C1CCCC1 (single isomer, unassigned) [Compound 11A]
8 | ≤ 6.00 | CC(O)(c1cnc2c(ccn2-c2cccc(-c3nnc[nH]3)c2)c1)C1CCCC1 (single isomer, unassigned) [Compound 11B]
9 | > 7.00 | CC(C)OCC(O)c1cnc2c(cnn2-c2cccc(-c3nnc[nH]3)c2)c1 (single isomer, unassigned) [Compound 18B]
10 | > 7.00 | CCOC(C)(C)C(O)c1cnc2c(cnn2-c2cccc(-c3nnc[nH]3)c2)c1 (single isomer, unassigned) [Compound 34A]
11 | > 7.00 | O=C(O)c1ccc(-n2ncc3cc(C(O)C4CC(F)(F)C4)cnc32)cc1 (single isomer, unassigned) [Compound 45A]
12 | > 7.00 | CC(C)C[C@@H](O)C(O)c1cnc2c(ccn2-c2cccc(-c3nnc[nH]3)c2)c1 (stereo in doubt) [Compound 3A, (1R,2R)-4-methyl-1-[1-[3-(4H-1,2,4-triazol-3-yl)phenyl]pyrrolo[2,3-b]pyridin-5-yl]pentane-1,2-diol]
13 | 6.00 to 7.00 | OC1(c2cnc3c(ccn3-c3cc(Cl)cc(-c4nnc[nH]4)c3)c2)CCCC1 [Compound 13]
14 | ≤ 6.00 | CC(C)(O)c1cnc2c(cnn2-c2cc(Cl)cc(-c3nnc[nH]3)c2)c1 [Compound 19, 2-[1-[3-chloro-5-(4H-1,2,4-triazol-3-yl)phenyl]pyrazolo[3,4-b]pyridin-5-yl]propan-2-ol]
15 | > 7.00 | CC(C)(C)OC[C@H](O)c1cnc2c(ccn2-c2cccc(-c3nnc[nH]3)c2)c1 [Compound 31A]
16 | > 7.00 | CC(C)OC[C@H](O)c1cnc2c(cnn2-c2ccc(CCCC(=O)O)c(F)c2)c1 [Compound 77B]
17 | > 7.00 | CC(C)OC[C@@H](O)c1cnc2c(cnn2-c2ccc(OCC(=O)O)cc2)c1 [Compound 78B]
18 | > 7.00 | O=C(O)CCc1ccc(-n2ncc3cc([C@H](O)COC4CC4)cnc32)cc1F [Compound 86B]
19 | 6.00 to 7.00 | O=C(O)c1ccc(-n2ncc3cc([C@@H](O)C4COC4)ccc32)cc1 [Compound 120B]

These molecules were tested on A549 (assay: A549 EC50 (cell assay, method not described)). Settings: A549.
Assay type: cell-based

Row | pEC50 | Compound
20 | > 7.00 | CC(C)OCC(O)c1cnc2c(cnn2-c2cccc(-c3nnc[nH]3)c2)c1 (single isomer, unassigned) [Compound 18A]
21 | > 7.00 | CCOC(C)(C)C(O)c1cnc2c(cnn2-c2cccc(-c3nnc[nH]3)c2)c1 (single isomer, unassigned) [Compound 34A]
22 | ≤ 6.00 | CCOC(C)(C)C(O)c1cnc2c(cnn2-c2cccc(-c3nnc[nH]3)c2)c1 (single isomer, unassigned) [Compound 34B]
23 | > 7.00 | CC(C)C[C@H](O)C(O)c1cnc2c(ccn2-c2cccc(-c3nnc[nH]3)c2)c1 (stereo in doubt) [Compound 3B, (1S,2S)-4-methyl-1-[1-[3-(4H-1,2,4-triazol-3-yl)phenyl]pyrrolo[2,3-b]pyridin-5-yl]pentane-1,2-diol]

Same assay, conditions: Homo sapiens, A549, A549

Row | Compound | pEC50
24 | OC(c1cnc2c(ccn2-c2cccc(-c3nnc[nH]3)c2)c1)C1CC(F)(F)C1 (stereo in doubt) [Compound 7A, (R)-(3,3-difluorocyclobutyl)-[1-[3-(4H-1,2,4-triazol-3-yl)phenyl]pyrrolo[2,3-b]pyridin-5-yl]methanol] | > 7.00
25 | O=C(O)c1ccc(-n2ncc3cc(C(O)C4CC(F)(F)C4)cnc32)cc1 (stereo in doubt) [Compound 45B, (S)-4-(5-((3,3-difluorocyclobutyl)(hydroxy)methyl)-1H-pyrazolo[3,4-b]pyridin-1-yl)benzoic acid] | > 7.00
26 | CCCCC(F)(F)[C@@H](O)c1cnc2c(ccn2-c2cccc(-c3nnc[nH]3)c2)c1 [Compound 8A] | > 7.00
27 | CCCCC(F)(F)[C@H](O)c1cnc2c(ccn2-c2cccc(-c3nnc[nH]3)c2)c1 [Compound 8B] | 6.00 to 7.00
28 | O=C(O)c1ccc(-n2ncc3cc([C@H](O)COC4CC(F)(F)C4)cnc32)cc1 [Compound 91B] | ≤ 6.00
29 | O=C(O)c1ccc(-n2ncc3cc([C@@H](O)C4CC(F)(F)C4)cnc32)cn1 [Compound 97B] | > 7.00
30 | O=C(O)c1ccc(-n2ccc3cc([C@@H](O)[C@@H]4CCCO4)cnc32)cc1 [Compound 98A] | ≤ 6.00
31 | O=C(O)c1ccc(-n2ccc3cc([C@H](O)[C@H]4CCCO4)cnc32)cc1 [Compound 100B] | > 7.00
32 | Cc1nn(-c2ccc(C(=O)O)cc2)c2ncc([C@H](O)C3CC(F)(F)C3)cc12 [Compound 102A] | ≤ 6.00
33 | O=C(O)c1ccc(-n2ccc3cc([C@@H](O)COC4CCC4)cnc32)cc1 [Compound 103A] | > 7.00
34 | O=C(O)c1ccc(-n2ccc3cc([C@H](O)COC4CCC4)cnc32)cc1 [Compound 103B] | 6.00 to 7.00
35 | Cc1nn(-c2ccc(C(=O)O)cc2)c2ncc([C@H](O)COC3CCCC3)cc12 [Compound 104B] | 6.00 to 7.00
36 | CC1(C)CC(OC[C@@H](O)c2cnc3c(cnn3-c3ccc(C(=O)O)cc3)c2)C1 [Compound 105B] | > 7.00
37 | CS(=O)(=O)c1cccc(-n2ncc3cc([C@H](O)COC4CCC4)cnc32)c1 [Compound 123B] | ≤ 6.00

Now from value to molecule:

Row | pEC50 | Compound
38 | 6.00 to 7.00 | CC(C)OCC(O)c1cnc2c(cnn2-c2cccc(-c3nnc[nH]3)c2)c1 (single isomer, unassigned) [Compound 18B]
39 | 6.00 to 7.00 | O=C(O)c1ccc(-n2ncc3cc(C(O)C4CC(F)(F)C4)cnc32)cc1 (single isomer, unassigned) [Compound 45A]
40 | > 7.00 | CC(C)C[C@@H](O)C(O)c1cnc2c(ccn2-c2cccc(-c3nnc[nH]3)c2)c1 (stereo in doubt) [Compound 3A, (1R,2R)-4-methyl-1-[1-[3-(4H-1,2,4-triazol-3-yl)phenyl]pyrrolo[2,3-b]pyridin-5-yl]pentane-1,2-diol]
41 | > 7.00 | OC(c1cnc2c(ccn2-c2cccc(-c3nnc[nH]3)c2)c1)C1CC(F)(F)C1 (stereo in doubt) [Compound 7B, (S)-(3,3-difluorocyclobutyl)-[1-[3-(4H-1,2,4-triazol-3-yl)phenyl]pyrrolo[2,3-b]pyridin-5-yl]methanol]
42 | > 7.00 | O[C@H](c1cnc2c(ccn2-c2cccc(-c3nnc[nH]3)c2)c1)C1CCCC1 [Compound 6A]
43 | 6.00 to 7.00 | O[C@@H](c1cnc2c(ccn2-c2cccc(-c3nnc[nH]3)c2)c1)C1CCCC1 [Compound 6B]
44 | > 7.00 | O[C@H](c1cnc2c(cnn2-c2cccc(-c3nnc[nH]3)c2)c1)C1CCCC1 [Compound 9A]
45 | > 7.00 | O[C@@H](c1cnc2c(cnn2-c2cccc(-c3nnc[nH]3)c2)c1)C1CCCC1 [Compound 9B]
46 | ≤ 6.00 | O=C(O)CCc1ccc(-n2ncc3cc([C@H](O)COC4CCC4)cnc32)cc1F [Compound 82B]
47 | ≤ 6.00 | O=C(O)c1ccc(-n2ncc3cc([C@@H](O)COC4CC(F)(F)C4)cnc32)cc1 [Compound 91A]
48 | ≤ 6.00 | O=C(O)c1ccc(-n2ncc3cc([C@H](O)C4CC(F)(F)C4)cnc32)cn1 [Compound 97A]
49 | > 7.00 | O=C(O)c1ccc(-n2ccc3cc([C@H](O)[C@@H]4CCCO4)cnc32)cc1 [Compound 98B]
50 | ≤ 6.00 | O=C(O)c1ccc(-n2ccc3cc([C@@H](O)[C@H]4CCCO4)cnc32)cc1 [Compound 100A]
51 | > 7.00 | O=C(O)c1ccc(-n2ncc3cc([C@@H](O)COCC4CCC4)cnc32)cc1 [Compound 101A]
52 | 6.00 to 7.00 | Cc1nn(-c2ccc(C(=O)O)cc2)c2ncc([C@@H](O)C3CC(F)(F)C3)cc12 [Compound 102B]
53 | 6.00 to 7.00 | Cc1nn(-c2ccc(C(=O)O)cc2)c2ncc([C@@H](O)COC3CCCC3)cc12 [Compound 104A]
54 | 6.00 to 7.00 | CC1(C)CC(OC[C@H](O)c2cnc3c(cnn3-c3ccc(C(=O)O)cc3)c2)C1 [Compound 105A]
55 | 6.00 to 7.00 | CS(=O)(=O)c1cccc(-n2ncc3cc([C@@H](O)COC4CCC4)cnc32)c1 [Compound 123A]
